Tests used:
[1] = Transdermal diffusion of Vitamin C / reductones across guinea pig abdominal skin in a diffusion cell; type: in vitro ADME; conditions: for Reductones transported across the guinea pig membrane: 3 hours, 37° C., phosphate buffer pH 7; for Fraction trans-dermal percent: 10 mg applied, after 3 hours, relative to reductone equivalent present in application
Protocol: The diffusion studies were carried out across the guinea pig abdominal skin. […] The guinea pig abdominal skin was placed between the upper and lower chambers of the diffusion cell, thereby separating the 2 chambers. The test composition was introduced into the upper chamber. Migration of the components from the upper chamber to the lower chamber (which had liquid or buffer at body pH) through the guinea pig abdominal skin allowed comparative studies for extent of migration of the components from different test compositions.
After introducing the test material in the upper chamber, the diffusion was carried out for 3 hours.
The lower chamber of the diffusion cells were filled with 15 ml of phosphate buffer, pH 7, and the prepared guinea pig skins were fixed on each diffusion cell between the upper and lower chambers of the diffusion cell. The temperature of the diffusion cell was maintained at 37° C.
The diffusion across the skin membrane of active ingredients, that is, scorbutic reductones (that is Vitamin C actives substances including ascorbic acid) and hydrogen ions was carried out for three hours.
To an aliquot (5 ml) of supernatant of the HPO3 extract 2.5 ml of acetone was added and the resulting solution was titrated with dye 2,6-dichloro indophenol until a faint pink color persisted for 15 seconds. The concentration of Vitamin C in the sample was expressed as mg ascorbic acid equivalent to 1 ml of the dye solution.

[2] = Radical scavenging by the DPPH (diphenylpicryl-hydrazyl) method; conditions: 10 mg dose

O=C1O[C@H]([C@@H](O)CO)C(O)=C1O [ascorbic acid]
Reductones transported across the guinea pig membrane ([1]; 10 mg applied on guinea pig membrane): 0.3 mg | Fraction trans-dermal percent [1]: 3.0% | Fraction trans-dermal percent ([1]; listed as Vitamin C): 3% | Reductones transported across the guinea pig membrane ([1]; 100 mg applied on guinea pig membrane): 8.4 mg | inhibition (DPPH radical scavenging) [2]: −4.66%
